pIC50: −log10 of the molar value.
Tests used:
[1] = test system: SARS CoV-2 D614G Spike pseudovirus; type: cell-based
SARS-CoV-2 spike HPM7 = SARS-CoV-2 spike HPM7 (Severe acute respiratory syndrome coronavirus 2, UniProt P0DTC2, A892P/A899P/A942P/F817P/K986P/R682G/R683S/R685S/T883C/V705C/V987P)

SMILES | pIC50 [1] | Particles in closed conformation (3 RBD down) (SARS-CoV-2 spike HPM7) | Particles in open conformation (1 RBD up) (SARS-CoV-2 spike HPM7)
O[C@@H](COc1cccc(OC[C@H](O)CN2CCCCC2)c1)CN1CCCCC1 [(R,R)-VE607, reference compound] | 6.18 |  | 
CN(C)C[C@@H](O)COc1cc(Br)cc(OC[C@H](O)CN(C)C)c1 [Compound 27] | 6.11 | 16.9% | 68.0%
CN1CCN(C[C@@H](O)COc2cc(Br)cc(OC[C@H](O)CN3CCN(C)CC3)c2)CC1 [Compound 30] | 5.88 |  | 
CCN(C)C[C@@H](O)COc1cc(Br)cc(OC[C@H](O)CN(C)CC)c1 [Compound 33] | 5.94 |  | 
